Each structure is given as a SMILES string.

T1 sequence (P04792 whole entry): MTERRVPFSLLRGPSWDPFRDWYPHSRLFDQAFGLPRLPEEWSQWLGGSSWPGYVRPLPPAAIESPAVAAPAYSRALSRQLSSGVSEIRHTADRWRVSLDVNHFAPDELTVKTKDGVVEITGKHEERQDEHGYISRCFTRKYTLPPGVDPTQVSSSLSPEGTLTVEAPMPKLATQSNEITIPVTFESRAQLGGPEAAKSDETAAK

The target in one experiment is T1, HSP27 (Homo sapiens, UniProt P04792). The experiment is described as follows: Capillary electrophoresis of the CS protein precipitates (precipitated citrate synthase as measure of HSP27 inhibition). It counts as biochemical. Particulars: 10 μmol/L; 43° C. for 70 minutes; 750 μmol/L BVDU set at 1. On the procedure:
Since the heat-denatured protein aggregates of the citrate synthase from Example 1 are not water-soluble, these can be separated completely from the supernatant by means of centrifugation at room temperature at 16,000×g, 10 min. By using capillary electrophoresis, the compositions of the separated precipitates can be shown and quantified. The relative quantity of protein of precipitated citrate synthase serves as a measure of the efficacy of the test substances.
In each case, 481 nmol/L HSP27 and 1.44 μmol/L citrate synthase in 40 mmol/L HEPES buffer, pH 7.4, were employed. The relative quantity of protein of the precipitated citrate synthase in each case was normalized using a defined quantity of BSA as internal standard. The relative quantity of protein that precipitated when using 750 μmol/L BVDU was set at 1. The other test substances (2 representatives of phenothiazine derivatives of general formula (V), 2 representatives of purine derivatives of formula (I) or (II)) were each employed at a concentration of 10 μmol/L.
Since the heat-denatured protein aggregates of the citrate synthase from Example 2 are not water-soluble, these can be separated completely from the supernatant by means of centrifugation at room temperature at 16,000×g, 10 min. By using capillary electrophoresis, the compositions of the separated precipitates can be shown and quantified. The relative quantity of protein of precipitated citrate synthase serves as a measure of the efficacy of the test substances.
In each case, 481 nM HSP27 and 1.44 μmol/L citrate synthase in 40 mmol/L HEPES buffer, pH 7.4, were employed. The relative quantity of protein of the precipitated citrate synthase in each case was normalized using a defined quantity of BSA as internal standard. The relative quantity of protein that precipitated when using 750 μmol/L BVDU was set at 1. The other test substances (2 representatives of phenothiazine derivatives of general formula (V), 2 representatives of thymine derivatives of formula (I) or (II)) were employed at a concentration of 10 μmol/L in each case.
Otherwise, the experiments were performed as described above: […]
In the case of `CCCCc1cn([C@H]2C[C@H](n3cc(C)c(=O)[nH]c3=O)O[C@@H]2CO)nn1` [3′-(4-Butyl-1H-1,2,3-triazol-1-yl)-3′-deoxythymidine], the “Rel. quantity of protein prec. CS” value was found to be 0.76.

For the compound `Cc1cn([C@H]2C[C@H](n3cc(CC4CCCC4)nn3)[C@@H](CO)O2)c(=O)[nH]c1=O` [3′-[4-(Cyclopentylmethyl)-1H-1,2,3-triazol-1-yl]-3′-deoxythymidine], the “Rel. quantity of protein prec. CS” value turned out to be 0.66.

Take `COc1ccc(-c2cn([C@H]3CC(n4cc(C)c(=O)[nH]c4=O)O[C@@H]3CO)nn2)cc1` (stereo partly drawn) [1-[(4S,5S)-5-(Hydroxymethyl)-4-[4-(4-methoxyphenyl)-1,2,3-triazol-1-yl]oxolan-2-yl]-5-methyl-3H-pyrimidine-2,4-dione]: the “Rel. quantity of protein prec. CS” value was determined as 0.75.

Turning to `Cc1cn(C/C=C\CNC(=O)c2cccc3ccccc23)c(=O)[nH]c1=O` [N-[(2Z)-4-(5-Methyl-2,4-dioxo-3H-pyrimidin-1-yl)but-2-en-1-yl]naphthalene-1-carboxamide], the “Rel. quantity of protein prec. CS” value was 0.78.

As for `Cc1cn(C/C=C\CNC(=O)Cc2ccc3ccccc3c2)c(=O)[nH]c1=O` [N-[(2Z)-4-(5-Methyl-2,4-dioxo-3H-pyrimidin-1-yl)but-2-en-1-yl]-2-(naphthalen-2-yl)acetamide], the “Rel. quantity of protein prec. CS” value worked out at 0.83.

As to `Cc1cn([C@H]2C[C@H](n3cc(-c4ccccc4)nn3)[C@@H](CO)O2)c(=O)[nH]c1=O` [3′-Deoxy-3′-(4-phenyl-1H-1,2,3-triazol-1-yl)thymidine], the “Rel. quantity of protein prec. CS” value stood at 0.79.

In the case of `Cc1cn(C/C=C\CNC(=O)Cc2cccc3ccccc23)c(=O)[nH]c1=O` [N-[(2Z)-4-(5-Methyl-2,4-dioxo-3H-pyrimidin-1-yl)but-2-en-1-yl]-2-(naphthalen-1-yl)acetamide], the “Rel. quantity of protein prec. CS” value turned out to be 0.81.

Turning to `CCCCCc1cn([C@H]2C[C@H](n3cc(C)c(=O)[nH]c3=O)O[C@@H]2CO)nn1` [3′-Deoxy-3′-(4-pentyl-1H-1,2,3-triazol-1-yl)thymidine], the “Rel. quantity of protein prec. CS” value came out at 0.70.

Take `Cc1cn(C2C[C@H](n3cc(-c4ccc(Br)cc4)nn3)[C@@H](CO)O2)c(=O)[nH]c1=O` (stereo partly drawn) [1-[(4S,5S)-4-[4-(4-Bromophenyl)-1,2,3-triazol-1-yl]-5-(hydroxymethyl)oxolan-2-yl]-5-methyl-3H-pyrimidine-2,4-dione]: the “Rel. quantity of protein prec. CS” value is recorded as 0.64.

For `O=C(NC/C=C\Cn1ccc(=O)[nH]c1=O)C1c2ccccc2OC2C=CC=CC21` (stereo not shown) [N-[(2Z)-4-(2,4-Dioxo-3H-pyrimidin-1-yl)but-2-en-1-yl]-9,9a-dihydro-4aH-xanthene-9-carboxamide], the “Rel. quantity of protein prec. CS” value is 0.85.

As to `Cc1cn(C/C=C\CNC(=O)C2c3ccccc3-c3ccccc32)c(=O)[nH]c1=O` [N-[(2Z)-4-(5-Methyl-2,4-dioxo-3H-pyrimidin-1-yl)but-2-en-1-yl]-9H-fluorene-9-carboxamide], the “Rel. quantity of protein prec. CS” value was determined as 0.86.

For the compound `Cc1cn([C@H]2C[C@H](n3cc(CCc4ccccc4)nn3)[C@@H](CO)O2)c(=O)[nH]c1=O` [3′-Deoxy-3′-[4-(2-phenylethyl)-1H-1,2,3-triazol-1-yl]-thymidine], the “Rel. quantity of protein prec. CS” value was 0.74.

For the compound `Cc1cn(CCCCNC(=O)C2c3ccccc3-c3ccccc32)c(=O)[nH]c1=O` [N-[4-(5-Methyl-2,4-dioxo-3H-pyrimidin-1-yl)butyl]-9H-fluorene-9-carboxamide], the “Rel. quantity of protein prec. CS” value is recorded as 0.58.

For the compound `Cc1cn([C@H]2C[C@H](n3cc(-c4ccccn4)nn3)[C@@H](CO)O2)c(=O)[nH]c1=O` [3′-Deoxy-3′-[4-(2-pyridinyl)-1H-1,2,3-triazol-1]-yl]thymidine], the “Rel. quantity of protein prec. CS” value was 0.84.

For `Cc1cn(CCCCNC(=O)C(c2ccccc2)c2ccccc2)c(=O)[nH]c1=O` [N-[4-(5-Methyl-2,4-dioxo-3H-pyrimidin-1-yl)butyl]-2,2-diphenylacetamide], the “Rel. quantity of protein prec. CS” value is 0.79.

In the case of `Cc1cn([C@H]2C[C@H](n3cc(C(C)(C)C)nn3)[C@@H](CO)O2)c(=O)[nH]c1=O` [3′-Deoxy-3′-[4-(2-methyl-2-propanyl)-1H-1,2,3-triazol-1-yl]thymidine], the “Rel. quantity of protein prec. CS” value was 0.61.

Consider `O=C(Cc1ccc(-c2ccccc2)cc1)NC/C=C\Cn1ccc(=O)[nH]c1=O` [N-[(2Z)-4-(2,4-Dioxo-3H-pyrimidin-1-yl)but-2-en-1-yl]-2-(4-phenylphenyl)acetamide], for which the “Rel. quantity of protein prec. CS” value is 0.88.

For the compound `Cc1cn(C2C[C@H](n3cc(-c4cccc(Br)c4)nn3)[C@@H](CO)O2)c(=O)[nH]c1=O` (stereo partly drawn) [1-[(4S,5S)-4-[4-(3-Bromophenyl)-1H-1,2,3-triazol-1-yl]-5-(hydroxymethyl)oxolan-2-yl]-5-methyl-1,2,3,4-tetrahydropyrimidine-2,4-dione], the “Rel. quantity of protein prec. CS” value amounted to 0.81.

As for `CCCc1cn([C@H]2C[C@H](n3cc(C)c(=O)[nH]c3=O)O[C@@H]2CO)nn1` [3′-Deoxy-3′-(4-propyl-1H-1,2,3-triazol-1-yl)thymidine], the “Rel. quantity of protein prec. CS” value came out at 0.79.

In the case of `Cc1cn(CCCCNC(=O)Cc2ccc3ccccc3c2)c(=O)[nH]c1=O` [N-[4-(5-Methyl-2,4-dioxo-3H-pyrimidin-1-yl)butyl]-2-(naphthalen-2-yl)acetamide], the “Rel. quantity of protein prec. CS” value came to 0.75.

In the case of `Cc1cn([C@H]2C[C@H](n3cc(-c4ccc(Cl)cc4)nn3)[C@@H](CO)O2)c(=O)[nH]c1=O` [3′-[4-(4-Chlorophenyl)-1H-1,2,3-triazol-1-yl]-3′-deoxythymidine], the “Rel. quantity of protein prec. CS” value is recorded as 0.67.

For the compound `Cc1cn(CCCCNC(=O)Cc2ccc(-c3ccccc3)cc2)c(=O)[nH]c1=O` [N-[4-(5-Methyl-2,4-dioxo-3H-pyrimidin-1-yl)butyl]-2-(4-phenylphenyl)acetamide], the “Rel. quantity of protein prec. CS” value is 0.67.

As to `Cc1cn(CCCCNC(=O)C2c3ccccc3Oc3ccccc32)c(=O)[nH]c1=O` [N-[4-(5-Methyl-2,4-dioxo-3H-pyrimidin-1-yl)butyl]-9H-xanthene-9-carboxamide], the “Rel. quantity of protein prec. CS” value is reported as 0.68.

`Cc1cn([C@H]2C[C@H](n3cc(-c4ccc(F)cc4)nn3)[C@@H](CO)O2)c(=O)[nH]c1=O` [3′-Deoxy-3′-[4-(4-fluorophenyl)-1H-1,2,3-triazol-1-yl]-thymidine]: the “Rel. quantity of protein prec. CS” value amounted to 0.66.

Regarding `Cc1cn([C@H]2C[C@H](n3cc(-c4ccc(Cl)c(Cl)c4)nn3)[C@@H](CO)O2)c(=O)[nH]c1=O` [3′-Deoxy-3′-[4-(3,4-dichlorophenyl)-1H-1,2,3-triazol-1-yl]-thymidine], the “Rel. quantity of protein prec. CS” value worked out at 0.86.

In the case of `Cc1cn(C/C=C\CNC(=O)C(c2ccccc2)c2ccccc2)c(=O)[nH]c1=O` [N-[(2Z)-4-(5-Methyl-2,4-dioxo-3H-pyrimidin-1-yl)but-2-en-1-yl]-2,2-diphenylacetamide], the “Rel. quantity of protein prec. CS” value was found to be 0.82.

For a further experiment, the target named is T1, HSP27. The experiment is described as follows: Bio-layer interferometry (ForteBio Octet Red 384, biotinylated HSP27 on SSA sensors). It is filed as binding. Particulars: analytes 1.23-300 μM/l, PBST 0.1% Tween 20 plus 3% DMSO; read-out: Dissociation constant KD. From the text: Bio-layer interferometry is a technique for detecting biomolecular interactions. It is an analytical technique that measures the optical interference of white light which is reflected by two surfaces: in each case, one surface consists of a layer of the immobilized target protein on the tip of the biosensor and one is an internal reference surface. The binding of ligands to the target protein alters the interference pattern and can be measured in real time.
For the measurements, an instrument of the ForteBio Octet Red 384 brand was used. The target protein HSP27 was biotinylated and bound to the appropriate sensors (SSA). […] The purine derivatives of general formula (I) or (II) pre-identified by means of in silico screening are employed for these measurements in a concentration range (KD) of between 333 μmol/L and 10 nmol/L.
For measurements by bio-layer interferometry, biotinylated HSP27 protein was first bound to Super-Streptavidin sensors (SSA, Fortebio). The loaded sensors were then incubated (“quenched”) with biocytin. As reference, unloaded SSA sensors were incubated with biocytin. In the case of a specific binding to HSP27 of the analyte to be measured, the loaded HSP27 sensor generates a stronger signal (response) than the concurrent reference sensor. After the “baseline” has been established by incubation with the reaction buffer (PBST 0.1% Tween 20 plus 3% DMSO), first the association and then the dissociation of the respective analyte is measured in real time. The analytes were measured in increasing concentrations in each case: 1.23-3.7-11.11-33.33-100-300 μM/l.
(Biolayer interferometry detects binding as a change in optical thickness at a sensor tip.)
One may read the Kd as the constant that tells how readily two partners part at equilibrium. With `O=c1nc(Nc2cccc(CO)c2)[nH]c2nc[nH]c12` [2-(3-Hydroxymethylphenylamino)-3,7-dihydropurin-6-one], the Kd worked out at 710 µM.

On to `O=c1[nH]c(=O)n([C@H]2C[C@H](O)[C@@H](CO)O2)cc1-c1ccccc1` [5-Phenyl-2′-deoxyuridine], for which the Kd turned out to be 60 µM.

Source of the values: US20170216297A1, “EFFICIENT INHIBITION OF HSP27” (TECHNISCHE UNIVERSITAET DRESDEN, priority 2014, published 2017).
